System: Hepa1-6/luc liver and lung metastasis
Experiment: Liver and lung metastasis model
Format: in vivo, mouse
Settings: Hepa1-6/luc cells via spleen or tail vein, 300 µM in 200 µL i.v. every two days, 16 days, n = 5
Text: Submitted to Advanced Science
effector T cells (CD45+CD3+CD8+)/(CD45+CD3+CD4+), tumor cells were stained with anti-CD45-FITC
(Biolegend), anti-CD3ε-PerCP-Cy5.5 (Biolegend), anti-CD4-APC (Biolegend), and anti-CD8a-PE (Biolegend)
antibodies according to the standard protocol. For evaluation of NK cells (CD45+CD3-NK1.1+), tumor cells
were stained with anti-CD45-FITC (Biolegend), anti-CD3-PE (Biolegend) and anti-CD49b-APC (Biolegend)
antibodies and examined using flow cytometry. For MDSCs (CD45+CD11b+Gr-1+) analysis, tumor cells were
stained with anti-CD45-FITC, anti-CD11b-BrilliantViolet-510 (Biolegend), anti -F4/80-PE (Biolegend), and
anti-Gr-1-APC (Biolegend) antibodies for flow cytometry examination (BD FACS Canto SORP, USA). The
software FlowJo V10.6.2 was used for data analysis. To further explore the immunomodulatory effects of FTP-
NPs. Tumor tissues were harvested for immune profiling. Plasma cytokine levels, including IL-6, IL-10, and
TNF-α, were measured using commercially available ELISA kits to assess the immune activation induced by
Experimental liver and lung metastasis model
Six-week-old male C57BL/6J mice (20–25 g) were used to establish liver and lung metastasis models. Hepa1-
6/luc cells (1 × 10^6 cells) were injected into the spleen or tail vein of the mice to induce liver or lung
metastasis, respectively. For the liver metastasis model, Hepa1-6/luc cells were injected into the spleen, allowing
tumor cells to circulate and establish metastases in the liver. For the lung metastasis model, Hepa1-6/luc cells
were injected via the tail vein, leading to the formation of metastases in the lungs. Following cell implantation, […]
euthanized, and metastases were assessed macroscopically. […]
injecting D-Luciferin (150 mg/kg) intraperitoneally, and tumor burden was quantified using the IVIS Spectrum […]
conducted, and metastatic lesions were assessed under an inverted microscope (Axiovert 200, Zeiss, Germany). […]
300 μM per injection) for mice. […] (b) Fluorescence quantized chart […]
experiments. Statistical significance was calculated by one-way ANOVA, *p < 0.050.(c, d) Photographs of lung […]

CC(C)(C)C(=O)Oc1ccc(S(=O)(=O)Nc2ccccc2C(=O)NCC(=O)O)cc1 [NEi, Sivelestat, reference compound]
liver and lung metastasis (bioluminescent signals, number of metastatic foci): obvious metastases
